Counter-ions that a name gives are not always drawn.
Legend:
[1] = system: CGAS; test: CGAS whole blood cytokine release assay (384-well, BacMam stimulation, IP-10 by cytometric bead array); assay type: cell-based; conditions: Homo sapiens, 6 h; read-out: hWB pXC50 (converted)
Protocol: Blood collection: Blood was collected in a tube containing 10% Sodium Heparin (5 ml/45 ml blood final).
Protocol for CGAS Whole Blood Cytokine Release Assay: Compounds serial diluted at 1:3 were provided at 150 nL per well, in a 384 well polypropylene microplate (cat. 781280; Greiner Bio-One, Frickenhausen, Germany). 5 μL of PBS/20% Null BacMam was dispensed to all wells except for column 18 on a Multidrop Combi (Thermo Scientific, Waltham, MA). 5 uL of PBS was dispensed into column 18. The Bravo (Agilent, Santa Clara, CA) was used to transfer 45 uL of donor derived blood into the compound plates. The Bravo protocol mixed the blood and compound/PBS 5 times. The plates were incubated at 37° C., 5% CO2, for 6 hours. At the 6 hour mark the plates were removed and centrifuged for 10 minutes at 3000 RPM. 3 uL of supernatant was transferred from the plate to a 384 well NBS microplate (cat. 4513; Corning Life Sciences, Corning, NY). These plates were sealed with adhesive foil and stored in a −80 freezer until ready for analysis.
For cytokine detection, Human IP-10 BD cytometric bead array (CBA) beads (BD Biosciences, Franklin Lakes, NJ) were used. Capture bead solution was prepared by performing a 1:50 dilution of the IP-10 capture bead stock solution in BD diluent for serum/plasma (cat. 51-9003991 BD Biosciences, Franklin Lakes, NJ). 2 μL of this solution was added per well to the assay microplates which were then sealed with adhesive foil and incubated at room temperature for 2 h in the dark. Detection reagent was further prepared by performing a 1:50 dilution of the detection reagent stock solution. 2 μL of detection reagent was added per well and microplates were sealed with adhesive foil and incubated at room temperature in the dark for 1 h. After the 1 h incubation 3 uL of BD CBA wash buffer was added per well of the microplates. Data were acquired on an iQue Screener flow cytometer. The iQue used fluorescence detection to quantify the inhibition of IP-10 present in the sample wells. A sip time of 1 second per sample was used. The blue laser with excitation of 488 nm and emission filters 585/40 nm were used to capture the mean and median of IP-10 with the detector in logarithmic mode (FL2-H).
All data analysis was carried out in IDBS ActivityBase XE.

[2] = biological target: human CGAS (157-522) (Homo sapiens, UniProt Q8N884); test: biochemical;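 note: biochemical enzyme reaction, 2′3′-cGAMP product measured by RapidFire mass spectrometry (MRM) normalised to c-di-UMP internal standard, inhibition of product formation relative to high and low control wells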
Sequence of human CGAS (157-522) (Q8N884 157-522): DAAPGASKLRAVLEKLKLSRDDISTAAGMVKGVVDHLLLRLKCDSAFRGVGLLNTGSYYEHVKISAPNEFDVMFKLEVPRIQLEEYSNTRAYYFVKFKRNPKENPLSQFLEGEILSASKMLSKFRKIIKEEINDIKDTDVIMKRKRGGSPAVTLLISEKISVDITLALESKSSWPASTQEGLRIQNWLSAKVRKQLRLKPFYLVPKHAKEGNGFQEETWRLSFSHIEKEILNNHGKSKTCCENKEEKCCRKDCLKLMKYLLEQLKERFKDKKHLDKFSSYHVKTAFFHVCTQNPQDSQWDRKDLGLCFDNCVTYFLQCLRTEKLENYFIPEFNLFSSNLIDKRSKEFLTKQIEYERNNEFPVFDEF

Row | SMILES | IC50 [1] [nM] | IC50 [2] [nM]
1 | Fc1cn2c(-c3cnc[nH]3)c(-c3nc(C(F)(F)F)n[nH]3)nc2nc1C(F)(F)F [Example 125, 5-[6-fluoro-3-(1H-imidazol-5-yl)-7-(trifluoromethyl)imidazo[1,2-a]pyrimidin-2-yl]-3-(trifluoromethyl)-1H-1,2,4-triazole] | 3160 | 15.8
2 | FC(F)(F)c1n[nH]c(-c2nc3ncc(COCC(F)(F)C(F)(F)C(F)(F)F)cn3c2-c2cnc[nH]2)n1 [Example 123, 5-{6-[(2,2,3,3,4,4,4-heptafluorobutoxy)methyl]-3-(1H-imidazol-5-yl)imidazo[1,2-a]pyrimidin-2-yl}-3-(trifluoromethyl)-1H-1,2,4-triazole] | 1260 | 6.31
3 | CC(=O)c1ccn2c(-c3cnc[nH]3)c(-c3nc(C(F)(F)F)n[nH]3)nc2n1 [Example 14, 1-[3-(1H-imidazol-5-yl)-2-[3-(trifluoromethyl)-1H-1,2,4-triazol-5-yl]imidazo[1,2-a]pyrimidin-7-yl]ethan-1-one] | 63.1 | 10
4 | CC(C)c1ccn2c(-c3cnc[nH]3)c(-c3nc(C(F)(F)F)n[nH]3)nc2n1 [Example 55, 5-[3-(1H-imidazol-5-yl)-7-(propan-2-yl)imidazo[1,2-a]pyrimidin-2-yl]-3-(trifluoromethyl)-1H-1,2,4-triazole] | 1000 | 7.94
5 | FC(F)(F)c1n[nH]c(-c2nc3nc(C(F)(F)F)c(Cl)cn3c2-c2cnc[nH]2)n1 [Example 128, 5-[6-chloro-3-(1H-imidazol-5-yl)-7-(trifluoromethyl)imidazo[1,2-a]pyrimidin-2-yl]-3-(trifluoromethyl)-1H-1,2,4-triazole] | 3160 | 12.6
6 | CC1COC(COCc2cnc3nc(-c4nc(C(F)(F)F)n[nH]4)c(-c4c[nH]cn4)n3c2)C1 (centres unmarked) [Example 156, 5-[3-(1H-imidazol-4-yl)-6-{[(4-methyloxolan-2-yl)methoxy]methyl}imidazo[1,2-a]pyrimidin-2-yl]-3-(trifluoromethyl)-1H-1,2,4-triazole] | 631 | 10
7 | FC(F)(F)c1n[nH]c(-c2nc3ncc(COCC4CC45CCOC5)cn3c2-c2c[nH]cn2)n1 (centres unmarked) [Example 155, 5-[3-(1H-imidazol-4-yl)-6-[{{5-oxaspiro[2.4]heptan-1-yl}methoxy)methyl]imidazo[1,2-a]pyrimidin-2-yl]-3-(trifluoromethyl)-1H-1,2,4-triazole] | 501 | 7.94
8 | CCOc1cnc2nc(-c3nc(C(F)(F)F)n[nH]3)c(-c3cnc[nH]3)n2c1 [Example 163, 5-[6-ethoxy-3-(1H-imidazol-5-yl)imidazo[1,2-a]pyrimidin-2-yl]-3-(trifluoromethyl)-1H-1,2,4-triazole] | 794 | 10
9 | N#Cc1ccn2c(-c3c[nH]cn3)c(-c3nc(C(F)(F)F)n[nH]3)nc2n1 [Example 124, 3-(1H-imidazol-4-yl)-2-[3-(trifluoromethyl)-1H-1,2,4-triazol-5-yl]imidazo[1,2-a]pyrimidine-7-carbonitrile] | 158 | 6.31
10 | FC(F)(F)c1n[nH]c(-c2nc3nc4c(cn3c2-c2cn[nH]c2)COCC4)n1 [Example 72, 6-(1H-pyrazol-4-yl)-5-[3-(trifluoromethyl)-1H-1,2,4-triazol-5-yl]-11-oxa-2,4,7-triazatricyclo[7.4.0.0^3,^7]trideca-1,3,5,8-tetraene] | 15800 | 12.6
11 | CN1CCc2nc3nc(-c4nc(C(F)(F)F)n[nH]4)c(-c4cnc[nH]4)n3cc2C1 [Example 73, 6-(1H-imidazol-5-yl)-11-methyl-5-[3-(trifluoromethyl)-1H-1,2,4-triazol-5-yl]-2,4,7,11-tetraazatricyclo[7.4.0.0^3,^7]trideca-1,3,5,8-tetraene] | 794 | 6.31
12 | FC(F)(F)c1n[nH]c(-c2nc3ncc(CC4CCCCC4)cn3c2-c2cnc[nH]2)n1 [Example 15, 5-[6-(cyclohexylmethyl)-3-(1H-imidazol-5-yl)imidazo[1,2-a]pyrimidin-2-yl]-3-(trifluoromethyl)-1H-1,2,4-triazole, trifluoroacetic acid salt] | > 31600 | 10
13 | FC(F)(F)c1n[nH]c(-c2nc3nc4c(cn3c2-c2cnc[nH]2)CNC4)n1 [Example 63, 12-(1H-imidazol-5-yl)-11-[3-(trifluoromethyl)-1H-1,2,4-triazol-5-yl]-1,5,8,10-tetraazatricyclo[7.3.0.0^3,^7]dodeca-2,7,9,11-tetraene] | 794 | 6.31

The next molecules have a lower IC50 [2] than those just listed; values first:

Row | IC50 [1] [nM] | IC50 [2] [nM] | SMILES
14 | 501 | 5.01 | FC(F)c1n[nH]c(-c2nc3nc(C(F)(F)F)ccn3c2-c2cnc[nH]2)n1 [Example 88, 3-(difluoromethyl)-5-[3-(1H-imidazol-5-yl)-7-(trifluoromethyl)imidazo[1,2-a]pyrimidin-2-yl]-1H-1,2,4-triazole]
15 | 1260 | 5.01 | CC(=O)N1Cc2cn3c(-c4cnc[nH]4)c(-c4nc(C(F)(F)F)n[nH]4)nc3nc2C1 [Example 68, 1-[12-(1H-imidazol-5-yl)-11-[3-(trifluoromethyl)-1H-1,2,4-triazol-5-yl]-1,5,8,10-tetraazatricyclo[7.3.0.0^3,^7]dodeca-2,7,9,11-tetraen-5-yl]ethan-1-one]
16 | 200 | 2.51 | Fc1cnc2nc(-c3nc(C(F)F)n[nH]3)c(-c3c[nH]cn3)n2c1 [Example 5, 3-(difluoromethyl)-5-[6-fluoro-3-(1H-imidazol-4-yl)imidazo[1,2-a]pyrimidin-2-yl]-1H-1,2,4-triazole]
17 | 251 | 5.01 | FC(F)(F)c1n[nH]c(-c2nc3ncc(OC4CCOC4)cn3c2-c2cnc[nH]2)n1 (centres unmarked) [Example 161, 5-[3-(1H-imidazol-5-yl)-6-(oxolan-3-yloxy)imidazo[1,2-a]pyrimidin-2-yl]-3-(trifluoromethyl)-1H-1,2,4-triazole]
18 | 5010 | 5.01 | CC(C)(COCc1cnc2nc(-c3nc(C(F)(F)F)n[nH]3)c(-c3c[nH]cn3)n2c1)n1ccnc1 [Example 150, 5-(6-{[2-(1H-imidazol-1-yl)-2-methylpropoxy]methyl}-3-(1H-imidazol-4-yl)imidazo[1,2-a]pyrimidin-2-yl)-3-(trifluoromethyl)-1H-1,2,4-triazole]
19 | 501 | 3.98 | OCC(F)(F)c1ccn2c(-c3cnc[nH]3)c(-c3nc(C(F)(F)F)n[nH]3)nc2n1 [Example 6, 2,2-difluoro-2-[3-(1H-imidazol-5-yl)-2-[3-(trifluoromethyl)-1H-1,2,4-triazol-5-yl]imidazo[1,2-a]pyrimidin-7-yl]ethan-1-ol]
20 | 63.1 | 5.01 | Brc1n[nH]c(-c2nc3nc4c(cn3c2-c2cnc[nH]2)CCO4)n1 [Example 57, 11-(3-bromo-1H-1,2,4-triazol-5-yl)-12-(1H-imidazol-5-yl)-6-oxa-1,8,10-triazatricyclo[7.3.0.0^3,^7]dodeca-2,7,9,11-tetraene]
21 | 316 | 2.51 | FC(F)(F)c1n[nH]c(-c2nc3ncc(C4CCOC4)cn3c2-c2cnc[nH]2)n1 (centres unmarked) [Example 66, 5-[3-(1H-imidazol-5-yl)-6-(oxolan-3-yl)imidazo[1,2-a]pyrimidin-2-yl]-3-(trifluoromethyl)-1H-1,2,4-triazole]
22 | 398 | 5.01 | FC(F)(F)COc1cnc2nc(-c3nc(C(F)(F)F)n[nH]3)c(-c3cnc[nH]3)n2c1 [Example 160, 5-[3-(1H-imidazol-5-yl)-6-(2,2,2-trifluoroethoxy)imidazo[1,2-a]pyrimidin-2-yl]-3-(trifluoromethyl)-1H-1,2,4-triazole]
23 | 12600 | 3.16 | FC(F)(F)c1n[nH]c(-c2nc3ncc(COC4CCNC4)cn3c2-c2cnc[nH]2)n1 (centres unmarked) [Example 80, 5-[3-(1H-imidazol-5-yl)-6-[(pyrrolidin-3-yloxy)methyl]imidazo[1,2-a]pyrimidin-2-yl]-3-(trifluoromethyl)-1H-1,2,4-triazole]
24 | 126 | 5.01 | FC(F)(F)c1n[nH]c(-c2nc3nc4c(cn3c2-c2cnc[nH]2)COCC4)n1 [Example 71, 6-(1H-imidazol-5-yl)-5-[3-(trifluoromethyl)-1H-1,2,4-triazol-5-yl]-11-oxa-2,4,7-triazatricyclo[7.4.0.0^3,^7]trideca-1,3,5,8-tetraene]
25 | 631 | 5.01 | CSc1ccn2c(-c3cnc[nH]3)c(-c3nc(C(F)(F)F)n[nH]3)nc2n1 [Example 21, 5-[3-(1H-imidazol-5-yl)-7-(methylsulfanyl)imidazo[1,2-a]pyrimidin-2-yl]-3-(trifluoromethyl)-1H-1,2,4-triazole]
